For the test, the system named is Treponema hyodysenteriae. The experiment in a line: in vitro Streak Plate Test Method (inhibition endpoint / MIC on trypticase soy blood agar). It is filed as cell-based. The following applies: first number = growth occurred, second = no growth, 48 hrs at 39°C anaerobic. The method, then: The following test procedure was used to evaluate the anti-Treponema hyodysenteriae activity of the compounds in the present invention. This test procedure establishes the lowest concentration of the compounds that will inhibit the growth on cultures of Treponema hyodysenteriae in an in vitro Streak Plate Test Method.
Procedure: Stock solutions containing 10,000, 1,000, 100, 10, 1.0, and 0.1, micrograms per milliliters of the compound to be tested were prepared. The final dilutions to establish the test concentrations in the media were made by placing the correct volume of stock solution in a petri dish, adding the media (trypticase soy blood agar), and mixing before the media solidified. After the media solidified, the test cultures of Treponema hyodysenteriae were streaked onto the surface of the agar. Petri dishes containing media without test samples were also set up as culture controls and are inoculated in the same manner. All inoculated plates were incubated at 39°C in anaerobic jars for 48 hrs. Inhibition endpoints were then determined by observing the test plates for growth or no growth of the test cultures at the various concentrations of the compounds. If the culture growth occured at one concentration but not at the next higher concentration, the inhibitory endpoint or MIC (Minimum Inhibitory Concentration) was considered the higher concentration.
Referring to Table 1, the culture numbers refer to field isolate strains of Treponema hyodysenteriae. These field isolates were isolated in Illinois, Iowa, and Nebraska. The numbers giving the results in the Table are read as follows: the first number for each isolate and compound tested corresponds to the concentration in micrograms per milliliter where growth occurred and the second number corresponds to the concentration in micrograms per milliliter where no growth occurred.

Where [1] appears, read: Culture No. 8064 (field isolate).
Where [2] appears, read: Culture No. 8072 (field isolate).
The mark [3] stands for this setting: Culture No. 8076 (field isolate).
The mark [4] stands for this setting: Culture No. 8080 (field isolate).
[5] abbreviates: Culture No. 8087 (field isolate).
The mark [6] stands for this setting: Culture No. 8098 (field isolate).
[7] abbreviates: Culture No. 8125 (field isolate).
Setting [8] is: Culture No. B-100 (field isolate).
Where [9] appears, read: Culture No. B-140 (field isolate).

We go through three substances from patent EP0250134B1, “Method for combating swine dysentery” (IMCERA Group Inc., priority 1986, dated 1987).

For the substance Na Zn Lysocellin, the “Inhibition Endpoints” value reads like this: under setting [1], 1.0-5.0 µgs/ml; under setting [2], 1.0-5.0 µgs/ml; under setting [3], 1.0-5.0 µgs/ml; under setting [4], “.5-1.0 µgs/ml”; under setting [5], 1.0-5.0 µgs/ml; under setting [6], “.1-.5 µgs/ml”. Also, the “Inhibition Endpoints” value under setting [7] is on record as 1.0-5.0 µgs/ml, the “Inhibition Endpoints” value under setting [8] is given as 1.0-5.0 µgs/ml and the “Inhibition Endpoints” value under setting [9] is on record as 1.0-5.0 µgs/ml.
With Ni Lysocellin, the “Inhibition Endpoints” value is “.05-.1 µgs/ml” under setting [1]; “<.01 µgs/ml” under setting [2]; “.05-.1 µgs/ml” under setting [3]; “.1-.5 µgs/ml” under setting [4]; “.05-.1 µgs/ml” under setting [5]; “.05-.1 µgs/ml” under setting [6]. In addition, the “Inhibition Endpoints” value reads like this: under setting [7], “<.01 µgs/ml”; under setting [8], “<.01 µgs/ml”; under setting [9], “<.01 µgs/ml”.
For Zn Lysocellin, the “Inhibition Endpoints” value is on record as “.1-.5 µgs/ml” under setting [1]; “.1-.5 µgs/ml” under setting [2]; “.1-.5 µgs/ml” under setting [3]; “.1-.5 µgs/ml” under setting [4]; “.05-.1 µgs/ml” under setting [5]; “.1-.5 µgs/ml” under setting [6]. Also, the “Inhibition Endpoints” value is on record as “.05-.1 µgs/ml” under setting [7], “.05-.1 µgs/ml” under setting [8] and “.05-.1 µgs/ml” under setting [9].
